How the values were obtained:
[1] = compound: C=CC(=O)Nc1ccc(C(=O)Nc2[nH]nc3c2CN(C(=O)N[C@H](CN(C)C)c2ccccc2)C3(C)C)cc1 [YKL-5-124]; experiment: increase in dead-cell fraction, 72 h; higher = more death;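 further: breast cancer cell lines in 384-well plates, stained with Hoechst plus LIVE/DEAD far red dye and imaged, cells above an LDR intensity threshold counted dead, Hoechst-negative corpses included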
[2] = compound: CC(=O)c1c(C)c2cnc(Nc3ccc(N4CCN(CCOCCOCCOCCNC(=O)COc5cccc6c5C(=O)N(C5CCC(=O)NC5=O)C6=O)CC4)cn3)nc2n(C2CCCC2)c1=O [BSJ-03-123]; experiment: as above
[3] = compound: CC(=O)c1c(C)c2cnc(Nc3ccc(N4CCNCC4)cn3)nc2n(C2CCCC2)c1=O; experiment: as above
[4] = compound: CCN1CCN(Cc2ccc(Nc3ncc(F)c(-c4cc(F)c5nc(C)n(C(C)C)c5c4)n3)nc2)CC1; experiment: as above
[5] = compound: T1, CCOc1cc2ncc(C#N)c(Nc3ccc(OCc4ccccn4)c(Cl)c3)c2cc1NC(=O)/C=C/CN(C)C [Neratinib/HKI272]; experiment: as above
[6] = compound: CCc1cnn2c(NCc3ccc[n+]([O-])c3)cc(N3CCCC[C@H]3CCO)nc12; experiment: as above
[7] = compound: CN(C)C(=O)c1cc2cnc(Nc3ccc(N4CCNCC4)cn3)nc2n1C1CCCC1 [LEE011/Ribociclib]; experiment: as above
[8] = compound: CN(C)C/C=C/C(=O)Nc1ccc(C(=O)N2CCC[C@@H](Nc3ncc(Cl)c(-c4c[nH]c5ccccc45)n3)C2)cc1 [THZ531]; experiment: as above
[9] = compound: CN(C)C/C=C/C(=O)Nc1ccc(C(=O)Nc2cccc(Nc3ncc(Cl)c(-c4c[nH]c5ccccc45)n3)c2)cc1 [THZ1]; experiment: as above
[10] = compound: T2, CN1CC[C@H](c2c(O)cc(O)c3c(=O)cc(-c4ccccc4Cl)oc23)[C@H](O)C1 [Flavopiridol]; experiment: as above
[11] = compound: T1, Neratinib/HKI272; experiment: GR value, 72 h; higher = faster growth (1 = untreated, <0 = killing);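 further: breast cancer and non-malignant breast epithelial lines, nine half-log doses, viable cells counted by Hoechst and LIVE/DEAD dye imaging versus time-zero plates and DMSO controls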
[12] = compound: T2, Flavopiridol; experiment: as above

Cell Line: MCF12A
- increase in dead-cell fraction ([1]; 0.001 µM): 0.0376
- increase in dead-cell fraction ([1]; 0.003162 µM): 0.0894
- increase in dead-cell fraction ([1]; 0.01 µM): 0.136
- increase in dead-cell fraction ([1]; 0.03162 µM): 0.155
- increase in dead-cell fraction ([1]; 0.1 µM): 0.184
- increase in dead-cell fraction ([1]; 0.3162 µM): 0.177
- increase in dead-cell fraction ([1]; 1 µM): 0.165
- increase in dead-cell fraction ([1]; 3.162 µM): 0.164
- increase in dead-cell fraction ([1]; 10 µM): 0.252
- increase in dead-cell fraction ([2]; 0.001 µM): -0.0046
- increase in dead-cell fraction ([2]; 0.003162 µM): 0.0003
- increase in dead-cell fraction ([2]; 0.01 µM): 0.0014
- increase in dead-cell fraction ([2]; 0.03162 µM): -0.0002
- increase in dead-cell fraction ([2]; 0.1 µM): 0.0054
- increase in dead-cell fraction ([2]; 0.3162 µM): 0.0008
- increase in dead-cell fraction ([2]; 1 µM): 0.0162
- increase in dead-cell fraction ([2]; 3.162 µM): 0.0226
- increase in dead-cell fraction ([2]; 10 µM): 0.151
- increase in dead-cell fraction ([3]; 0.0003162 µM): -0.0052
- increase in dead-cell fraction ([3]; 0.001 µM): -0.0036
- increase in dead-cell fraction ([3]; 0.003162 µM): -0.0043
- increase in dead-cell fraction ([3]; 0.01 µM): -0.0067
- increase in dead-cell fraction ([3]; 0.03162 µM): -0.005
- increase in dead-cell fraction ([3]; 0.1 µM): -0.003
- increase in dead-cell fraction ([3]; 0.3162 µM): 0.0031
- increase in dead-cell fraction ([3]; 1 µM): 0.006
- increase in dead-cell fraction ([3]; 3.162 µM): 0.0205
- increase in dead-cell fraction ([4]; 0.001 µM): -0.003
- increase in dead-cell fraction ([4]; 0.003162 µM): 0.0003
- increase in dead-cell fraction ([4]; 0.01 µM): -0.0021
- increase in dead-cell fraction ([4]; 0.03162 µM): 0.0015
- increase in dead-cell fraction ([4]; 0.1 µM): 0.006
- increase in dead-cell fraction ([4]; 0.3162 µM): 0.0113
- increase in dead-cell fraction ([4]; 1 µM): 0.0148
- increase in dead-cell fraction ([4]; 3.162 µM): 0.0231
- increase in dead-cell fraction ([4]; 10 µM): 0.0492
- increase in dead-cell fraction ([5]; 0.0003162 µM): -0.002
- increase in dead-cell fraction ([5]; 0.001 µM): 0.0045
- increase in dead-cell fraction ([5]; 0.003162 µM): 0.0065
- increase in dead-cell fraction ([5]; 0.01 µM): -0.0012
- increase in dead-cell fraction ([5]; 0.03162 µM): -0.0009
- increase in dead-cell fraction ([5]; 0.1 µM): 0.0012
- increase in dead-cell fraction ([5]; 0.3162 µM): 0.029
- increase in dead-cell fraction ([5]; 1 µM): 0.0776
- increase in dead-cell fraction ([5]; 3.162 µM): 0.146
- increase in dead-cell fraction ([6]; 0.0001 µM): -0.0058
- increase in dead-cell fraction ([6]; 0.0003162 µM): 0.0036
- increase in dead-cell fraction ([6]; 0.001 µM): 0.0056
- increase in dead-cell fraction ([6]; 0.003162 µM): -0.0029
- increase in dead-cell fraction ([6]; 0.01 µM): 0.0006
- increase in dead-cell fraction ([6]; 0.03162 µM): 0.0291
- increase in dead-cell fraction ([6]; 0.1 µM): 0.541
- increase in dead-cell fraction ([6]; 1 µM): 0.517
- increase in dead-cell fraction ([7]; 0.001 µM): 0.0031
- increase in dead-cell fraction ([7]; 0.003162 µM): -0.0078
- increase in dead-cell fraction ([7]; 0.01 µM): 0.0001
- increase in dead-cell fraction ([7]; 0.03162 µM): 0.0156
- increase in dead-cell fraction ([7]; 0.1 µM): 0.002
- increase in dead-cell fraction ([7]; 0.3162 µM): 0.0029
- increase in dead-cell fraction ([7]; 1 µM): 0.0076
- increase in dead-cell fraction ([7]; 3.162 µM): 0.0018
- increase in dead-cell fraction ([7]; 10 µM): 0.0126
- increase in dead-cell fraction ([8]; 0.0001 µM): 0.0108
- increase in dead-cell fraction ([8]; 0.0003162 µM): 0.0023
- increase in dead-cell fraction ([8]; 0.001 µM): -0.0009
- increase in dead-cell fraction ([8]; 0.003162 µM): 0.0027
- increase in dead-cell fraction ([8]; 0.01 µM): 0.0039
- increase in dead-cell fraction ([8]; 0.03162 µM): 0.0089
- increase in dead-cell fraction ([8]; 0.1 µM): 0.0009
- increase in dead-cell fraction ([8]; 0.3162 µM): 0.0073
- increase in dead-cell fraction ([8]; 1 µM): 0.332
- increase in dead-cell fraction ([9]; 0.0001 µM): 0
- increase in dead-cell fraction ([9]; 0.0003162 µM): -0.007
- increase in dead-cell fraction ([9]; 0.001 µM): 0.0031
- increase in dead-cell fraction ([9]; 0.003162 µM): 0.0056
- increase in dead-cell fraction ([9]; 0.01 µM): 0.0015
- increase in dead-cell fraction ([9]; 0.03162 µM): 0.0071
- increase in dead-cell fraction ([9]; 0.1 µM): 0.0475
- increase in dead-cell fraction ([9]; 0.3162 µM): 0.127
- increase in dead-cell fraction ([9]; 1 µM): 0.697
- increase in dead-cell fraction ([10]; 0.0001 µM): 0.0046
- increase in dead-cell fraction ([10]; 0.0003162 µM): 0.0087
- increase in dead-cell fraction ([10]; 0.001 µM): 0.0086
- increase in dead-cell fraction ([10]; 0.003162 µM): 0.0003
- increase in dead-cell fraction ([10]; 0.01 µM): -0.0016
- increase in dead-cell fraction ([10]; 0.03162 µM): 0.0044
- increase in dead-cell fraction ([10]; 0.1 µM): 0.0096
- increase in dead-cell fraction ([10]; 0.3162 µM): 0.0302
- increase in dead-cell fraction ([10]; 1 µM): 0.479
- GR value ([11]; 0.0003162 µM): 1.07 GR
- GR value ([11]; 0.001 µM): 0.998 GR
- GR value ([11]; 0.003162 µM): 1.01 GR
- GR value ([11]; 0.01 µM): 1.04 GR
- GR value ([11]; 0.03162 µM): 1.03 GR
- GR value ([11]; 0.1 µM): 0.893 GR
- GR value ([11]; 0.3162 µM): 0.546 GR
- GR value ([11]; 1 µM): 0.336 GR
- GR value ([11]; 3.162 µM): 0.0907 GR
- GR value ([12]; 0.0001 µM): 1.04 GR
- GR value ([12]; 0.0003162 µM): 0.977 GR
- GR value ([12]; 0.001 µM): 0.895 GR
- GR value ([12]; 0.003162 µM): 0.982 GR
- GR value ([12]; 0.01 µM): 0.961 GR
- GR value ([12]; 0.03162 µM): 0.949 GR
- GR value ([12]; 0.1 µM): 0.856 GR
- GR value ([12]; 0.3162 µM): 0.621 GR
- GR value ([12]; 1 µM): -0.121 GR

Reference: the supplement of paper PMC9663587
